Results taken from ChEMBL document CHEMBL2406955, “Synthesis and cytotoxic activities of novel hybrid 2-phenyl-3-alkylbenzofuran and imidazole/triazole compounds” (Bioorg Med Chem Lett, 2013).
pIC50: −log10 of the molar value.

Legend:
A549 = assay: Cytotoxicity against human A549 cells after 48 hrs by MTT assay; assay type: functional, cell-based; conditions: A549, 48 h
SW480 [1] = assay: Cytotoxicity against human SW480 cells after 48 hrs by MTT assay; assay type: functional, cell-based; conditions: SW480, 48 h
[2] = target: Serine/threonine-protein kinase mTOR (Homo sapiens) (UniProt P42345); assay: Inhibition of mTOR (unknown origin) assessed as ratio of cytoplasmic to nuclear level of eukaryotic initiation factor 4E
HL-60 = assay: Cytotoxicity against human HL60 cells after 48 hrs by MTT assay; assay type: functional, cell-based; conditions: HL-60, 48 h
SMMC-7721 = assay: Cytotoxicity against human SMMC7721 cells after 48 hrs by MTT assay; assay type: functional, cell-based; conditions: SMMC-7721, 48 h
MCF7 [3] = assay: Cytotoxicity against human MCF7 cells after 48 hrs by MTT assay; assay type: functional, cell-based; conditions: MCF7, 48 h
SW480 [4] = assay: Ratio of cisplatin IC50 to compound IC50 for human SW480 cells; assay type: functional
MCF7 [5] = assay: Ratio of cisplatin IC50 to compound IC50 for human MCF7 cells; assay type: functional

Ratio [2] | SMILES | pIC50 (A549) | pIC50 (SW480 [1]) | pIC50 (HL-60) | pIC50 (SMMC-7721) | pIC50 (MCF7 [3]) | Ratio IC50 (SW480 [4]) | Ratio IC50 (MCF7 [5])
1.54 | c1ccc(C[n+]2cn(Cc3c(-c4ccccc4)oc4ccccc34)c3ccccc32)cc1 | 5.15 | 5.49 | 5.71 | 5.32 | 5.46 |  | 
1.55 | CCc1n(Cc2c(-c3ccccc3)oc3ccccc23)cc[n+]1CC(=O)c1ccc2ccccc2c1 | 5.27 | 5.50 | 6.21 | 5.64 | 5.52 |  | 
 | Brc1ccccc1C[n+]1ccn(Cc2c(-c3ccccc3)oc3ccccc23)c1 | 4.95 | 4.99 | 5.73 | 5.18 | 5.25 |  | 
 | O=C(C[n+]1cnn(Cc2c(-c3ccccc3)oc3ccccc23)c1)c1ccc(O)cc1 | < 4.40 | < 4.40 | < 4.40 | < 4.40 | < 4.40 |  | 
 | c1ccc(C[n+]2cnn(Cc3c(-c4ccccc4)oc4ccccc34)c2)cc1 | < 4.40 | < 4.40 | < 4.40 | < 4.40 | < 4.40 |  | 
 | CCc1n(Cc2c(-c3ccccc3)oc3ccccc23)cc[n+]1CC(=O)c1ccc(O)cc1 | 4.57 | < 4.40 | 4.88 | 4.88 | 4.76 |  | 
1.11 | O=C(C[n+]1cnn(Cc2c(-c3ccccc3)oc3ccccc23)c1)c1ccccc1 | 4.86 | 4.77 | 5.45 | 5.24 | 4.83 |  | 
 | Brc1ccccc1C[n+]1cnn(Cc2c(-c3ccccc3)oc3ccccc23)c1 | 4.48 | 4.72 | 5.05 | 4.66 | 4.79 |  | 
 | CCCC[n+]1cnn(Cc2c(-c3ccccc3)oc3ccccc23)c1 | < 4.40 | < 4.40 | < 4.40 | < 4.40 | < 4.40 |  | 
 | c1ccc(-c2oc3ccccc3c2Cn2ccnc2)cc1 | < 4.40 | < 4.40 | < 4.40 | < 4.40 | < 4.40 |  | 
 | COc1ccc(C(=O)C[n+]2cnn(Cc3c(-c4ccccc4)oc4ccccc34)c2)cc1 | 4.86 | 4.76 | 5.49 | 5.24 | 4.83 |  | 
1.32 | COc1ccc(C(=O)C[n+]2cn(Cc3c(-c4ccccc4)oc4ccccc34)c3ccccc32)cc1 | 5.04 | < 4.40 | 6.21 | 4.78 | 4.62 |  | 
 | O=C(C[n+]1cnn(Cc2c(-c3ccccc3)oc3ccccc23)c1)c1ccc(F)cc1 | 4.82 | 4.78 | 5.01 | 5.04 | 4.79 |  | 
 | O=C(C[n+]1cn(Cc2c(-c3ccccc3)oc3ccccc23)c2ccccc21)c1ccc2ccccc2c1 | 5.35 | 5.44 | 5.63 | 5.58 | 5.49 |  | 
 | O=C(C[n+]1cnn(Cc2c(-c3ccccc3)oc3ccccc23)c1)c1ccc(Br)cc1 | 4.84 | 4.83 | 5.01 | 4.97 | 4.98 |  | 
 | O=C(C[n+]1cn(Cc2c(-c3ccccc3)oc3ccccc23)c2ccccc21)c1ccccc1 | 4.91 | 5.46 | 5.71 | 5.07 | 5.41 |  | 
 | O=C(C[n+]1ccn(Cc2c(-c3ccccc3)oc3ccccc23)c1)c1ccc(O)cc1 | < 4.40 | < 4.40 | < 4.40 | < 4.40 | < 4.40 |  | 
1.59 | CO[C@H]1C[C@@H]2CC[C@@H](C)[C@@](O)(O2)C(=O)C(=O)N2CCCC[C@H]2C(=O)O[C@H]([C@H](C)C[C@@H]2CC[C@@H](O)[C@H](OC)C2)CC(=O)[C@H](C)/C=C(\C)[C@@H](O)[C@@H](OC)C(=O)[C@H](C)C[C@H](C)/C=C/C=C/C=C/1C |  |  |  |  |  |  | 
 | O=C(C[n+]1cn(Cc2c(-c3ccccc3)oc3ccccc23)c2ccccc21)c1ccc(O)cc1 | 4.47 | 4.74 | 4.88 | 4.68 | 4.79 |  | 

Ratio [2] | SMILES | pIC50 (A549) | pIC50 (SW480 [1]) | pIC50 (HL-60) | pIC50 (SMMC-7721) | pIC50 (MCF7 [3]) | Ratio IC50 (SW480 [4]) | Ratio IC50 (MCF7 [5])
 | CCc1n(Cc2c(-c3ccccc3)oc3ccccc23)cc[n+]1CC(=O)c1ccc(F)cc1 | 4.84 | 4.95 | 6.00 | 5.09 | 5.30 |  | 
 | O=C(C[n+]1ccn(Cc2c(-c3ccccc3)oc3ccccc23)c1)c1ccc(F)cc1 | < 4.40 | 4.81 | 5.53 | 4.87 | 4.84 |  | 
 | CCc1n(Cc2c(-c3ccccc3)oc3ccccc23)cc[n+]1CC(=O)c1ccc(Br)cc1 | 4.89 | 5.45 | 6.14 | 5.22 | 5.54 |  | 
 | CCc1n(Cc2c(-c3ccccc3)oc3ccccc23)cc[n+]1CC(=O)c1ccc(OC)cc1 | 4.89 | 5.24 | 6.24 | 4.93 | 5.50 |  | 
 | O=C(C[n+]1ccn(Cc2c(-c3ccccc3)oc3ccccc23)c1)c1ccc2ccccc2c1 | 4.85 | 5.46 | 5.69 | 5.03 | 5.43 |  | 
1.12 | COc1ccc(C(=O)C[n+]2ccn(Cc3c(-c4ccccc4)oc4ccccc34)c2)cc1 | 4.79 | 4.92 | 5.64 | 4.78 | 4.99 |  | 
 | c1ccc(-c2oc3ccccc3c2Cn2cncn2)cc1 | < 4.40 | < 4.40 | < 4.40 | < 4.40 | < 4.40 |  | 
 | O=C(C[n+]1cn(Cc2c(-c3ccccc3)oc3ccccc23)c2ccccc21)c1ccc(Br)cc1 | 5.28 | 5.36 | 5.68 | 5.53 | 5.39 |  | 
 | CCc1nccn1Cc1c(-c2ccccc2)oc2ccccc12 | < 4.40 | < 4.40 | < 4.40 | < 4.40 | < 4.40 |  | 
 | O=C(c1ccccc1)C(c1ccccc1)[n+]1cnn(Cc2c(-c3ccccc3)oc3ccccc23)c1 (stereo unspecified) | 4.77 | 4.68 | 4.80 | 4.79 | 4.68 |  | 
1.07 | CCc1n(Cc2c(-c3ccccc3)oc3ccccc23)cc[n+]1Cc1ccccc1Br.[Br-] | 6.26 | 6.33 | 7.10 | 6.28 | 6.29 | 40.1 | 40.8
 | O=C(C[n+]1cn(Cc2c(-c3ccccc3)oc3ccccc23)c2ccccc21)c1ccc(F)cc1 | 4.93 | 5.48 | 5.69 | 5.03 | 5.50 |  | 
 | O=C(C[n+]1ccn(Cc2c(-c3ccccc3)oc3ccccc23)c1)c1ccccc1 | < 4.40 | 4.81 | 5.60 | 5.01 | 4.81 |  | 
 | CCc1n(Cc2c(-c3ccccc3)oc3ccccc23)cc[n+]1CC(=O)c1ccccc1 | 4.90 | 4.92 | 5.68 | 5.30 | 5.12 |  | 
 | c1ccc(-c2oc3ccccc3c2Cn2cnc3ccccc32)cc1 | < 4.40 | < 4.40 | < 4.40 | < 4.40 | < 4.40 |  | 
 | O=C(C[n+]1ccn(Cc2c(-c3ccccc3)oc3ccccc23)c1)c1ccc(Br)cc1 | 4.86 | 5.47 | 5.80 | 4.75 | 5.44 |  | 
1.52 | Brc1ccccc1C[n+]1cn(Cc2c(-c3ccccc3)oc3ccccc23)c2ccccc21 | 5.48 | 5.25 | 6.19 | 5.68 | 5.32 |  | 
0.96 | O=C(C[n+]1cnn(Cc2c(-c3ccccc3)oc3ccccc23)c1)c1ccc2ccccc2c1 | 5.69 | 5.54 | 5.63 | 5.73 | 5.51 |  | 
